Assay results reported in PubChem BioAssay AID328 (DTP/NCI, 2004).
Values joined by “and” are separate entries in the source; they are usually repeats but may differ in a detail not shown here. Equal entries are not always repeated. Inconclusive results and toxic doses are left out.

Test system: BDF1 mice, P388 leukemia ip, median survival T/C
Experiment: NCI In Vivo Anticancer Drug Screen. Data for tumor model P388 Leukemia (intraperitoneal) in B6D2F1 (BDF1) mice
Settings: endpoint: median survival time, higher = longer survival
Description: The antitumor activity of compounds was measured in mice bearing transplantable tumors. Survival or tumor size were measured and the results are expressed as the measurement made in the treated group (T) divided by the measurement made in the vehicle treated control group (C). The tumor model used in this assay is P388 Leukemia (intraperitoneal) in B6D2F1 (BDF1) mice

[1] = dose: 100.0 mg/kg/injection, schedule: Q04DX003 (ip), vehicle: Klucel (hydroxypropylcellulose) (HPC)
[2] = dose: 100.0 mg/kg/injection, schedule: Q04DX003 (ip), vehicle: saline with Tween-80
[3] = dose: 200.0 mg/kg/injection, schedule: Q04DX003 (ip), vehicle: Klucel (hydroxypropylcellulose) (HPC)
[4] = dose: 200.0 mg/kg/injection, schedule: Q04DX003 (ip), vehicle: saline with Tween-80
[5] = dose: 400.0 mg/kg/injection, schedule: Q04DX003 (ip), vehicle: saline with Tween-80
[6] = dose: 25.0 mg/kg/injection, schedule: Q01DX009 (ip), vehicle: saline with Tween-80
[7] = dose: 50.0 mg/kg/injection, schedule: Q01DX009 (ip), vehicle: saline with Tween-80
[8] = dose: 100.0 mg/kg/injection, schedule: Q01DX009 (ip), vehicle: saline with Tween-80
[9] = dose: 100.0 mg/kg/injection, schedule: Q01DX001 (ip), vehicle: saline with Tween-80
[10] = dose: 200.0 mg/kg/injection, schedule: Q01DX001 (ip), vehicle: saline with Tween-80
[11] = dose: 50.0 mg/kg/injection, schedule: Q01DX009 (ip), vehicle: other
[12] = dose: 100.0 mg/kg/injection, schedule: Q01DX009 (ip), vehicle: other
[13] = dose: 200.0 mg/kg/injection, schedule: Q01DX009 (ip), vehicle: other
[14] = dose: 100.0 mg/kg/injection, schedule: Q04DX003 (ip), vehicle: saline
[15] = dose: 200.0 mg/kg/injection, schedule: Q04DX003 (ip), vehicle: saline
[16] = dose: 25.0 mg/kg/injection, schedule: Q04DX003 (ip), vehicle: saline with Tween-80

## CC(C)=CCNc1ncnc2c1ncn2C1OC(CO)C(O)C1O (stereo unspecified)
dose: 50.0 mg/kg/injection, schedule: Q04DX003 (ip), vehicle: Klucel (hydroxypropylcellulose) (HPC)
  T/C: 95 % of control
[1]
  T/C: 100 % of control
[2]
  T/C: 104 % of control
[3]
  T/C: 95 % of control
[4]
  T/C: 100 % of control

## Cc1c(Cl)cccc1NC(=O)COc1ccc(Cl)cc1Cl
[2]
  T/C: 108 % of control
[4]
  T/C: 87 % of control
[5]
  T/C: 95 % of control

## Cc1[nH]c(=S)[nH]c(=O)c1CN(CCO)CCO
dose: 50.0 mg/kg/injection, schedule: Q01DX001 (ip), vehicle: Klucel (hydroxypropylcellulose) (HPC)
  T/C: 96 % of control
dose: 100.0 mg/kg/injection, schedule: Q01DX001 (ip), vehicle: Klucel (hydroxypropylcellulose) (HPC)
  T/C: 96 % of control
dose: 200.0 mg/kg/injection, schedule: Q01DX001 (ip), vehicle: Klucel (hydroxypropylcellulose) (HPC)
  T/C: 96 % of control

## O=C(C=C(C(F)(F)F)C(F)(F)F)c1ccccc1Cl
dose: 11.0 mg/kg/injection, schedule: Q01DX009 (ip), vehicle: saline with Tween-80
  T/C: 109 % of control
dose: 16.5 mg/kg/injection, schedule: Q01DX009 (ip), vehicle: saline with Tween-80
  T/C: 118 % of control
[6]
  T/C: 118 % of control

## COC(=O)c1ncccc1C(=O)O
[6]
  T/C: 86 % of control
[7]
  T/C: 95 % of control
[8]
  T/C: 90 % of control

## COc1cc2ccc(CC(=O)NCCc3ccc4c(c3)OCO4)cc2cc1OC
[1]
  T/C: 100 % of control
[3]
  T/C: 90 % of control
dose: 400.0 mg/kg/injection, schedule: Q04DX003 (ip), vehicle: Klucel (hydroxypropylcellulose) (HPC)
  T/C: 90 % of control

## ClC1=C(Cl)C(Cl)=C(Cl)C1=NN=C1C(Cl)=C(Cl)C(Cl)=C1Cl
dose: 50.0 mg/kg/injection, schedule: Q01DX001 (ip), vehicle: saline with Tween-80
  T/C: 100 % of control
[9]
  T/C: 95 % of control
[10]
  T/C: 90 % of control

## CCCCOC(=O)c1cccc(C(=O)OCCCC)c1Sc1ccccc1
[11]
  T/C: 105 % of control
[12]
  T/C: 100 % of control
[13]
  T/C: 107 % of control

## NC(=S)n1cccn1
dose: 50.0 mg/kg/injection, schedule: Q01DX010 (ip), vehicle: water
  T/C: 118 % of control

## Cc1oc(-c2ccccc2)nc1C(=O)O
[2]
  T/C: 106 % of control
[4]
  T/C: 100 % of control
[5]
  T/C: 102 % of control

## CCN(CC)CC(C)Nc1ccc(C)c2sc3ccccc3c(=O)c12 (stereo unspecified)
dose: 33.0 mg/kg/injection, schedule: Q04DX003 (ip), vehicle: saline sonified
  T/C: 118 % of control
dose: 44.0 mg/kg/injection, schedule: Q01DX009 (ip), vehicle: saline
  T/C: 159 % of control
dose: 66.0 mg/kg/injection, schedule: Q01DX009 (ip), vehicle: saline
  T/C: 200 % of control and 209 % of control
dose: 100.0 mg/kg/injection, schedule: Q01DX009 (ip), vehicle: saline
  T/C: 190 % of control
dose: 112.5 mg/kg/injection, schedule: Q04DX003 (ip), vehicle: saline sonified
  T/C: 154 % of control
dose: 300.0 mg/kg/injection, schedule: Q04DX003 (ip), vehicle: saline sonified
  T/C: 163 % of control

## O=C(CC(O)(C(F)(F)F)C(F)(F)F)c1cccc(Cl)c1
[9]
  T/C: 113 % of control
[10]
  T/C: 113 % of control
dose: 400.0 mg/kg/injection, schedule: Q01DX001 (ip), vehicle: saline with Tween-80
  T/C: 118 % of control

## O.O=c1[nH]cc(Cl)c(=O)[nH]1.[NH2-].[NH2-].[Pt+2]
dose: 6.25 mg/kg/injection, schedule: Q01DX009 (ip), vehicle: water
  T/C: 118 % of control
dose: 12.5 mg/kg/injection, schedule: Q01DX009 (ip), vehicle: water
  T/C: 155 % of control
dose: 12.5 mg/kg/injection, schedule: Q04DX003 (ip), vehicle: water
  T/C: 123 % of control
dose: 25.0 mg/kg/injection, schedule: Q01DX009 (ip), vehicle: water
  T/C: 229 % of control and 171 % of control
dose: 25.0 mg/kg/injection, schedule: Q04DX003 (ip), vehicle: water
  T/C: 166 % of control
dose: 50.0 mg/kg/injection, schedule: Q01DX009 (ip), vehicle: water
  T/C: 192 % of control
dose: 50.0 mg/kg/injection, schedule: Q04DX003 (ip), vehicle: water
  T/C: 200 % of control

## CCc1cc(O)c(Cl)c(C)c1Cl
dose: 50.0 mg/kg/injection, schedule: Q01DX009 (ip), vehicle: gum acacia
  T/C: 119 % of control
dose: 50.0 mg/kg/injection, schedule: Q04DX003 (ip), vehicle: gum acacia
  T/C: 111 % of control
dose: 100.0 mg/kg/injection, schedule: Q01DX009 (ip), vehicle: gum acacia
  T/C: 111 % of control
dose: 100.0 mg/kg/injection, schedule: Q04DX003 (ip), vehicle: gum acacia
  T/C: 100 % of control
dose: 200.0 mg/kg/injection, schedule: Q04DX003 (ip), vehicle: gum acacia
  T/C: 100 % of control

## CC1COCC(C)N1 (stereo unspecified)
[14]
  T/C: 106 % of control
[15]
  T/C: 111 % of control
dose: 400.0 mg/kg/injection, schedule: Q04DX003 (ip), vehicle: saline
  T/C: 106 % of control

## Cc1nc2ccccc2nc1CBr
dose: 2.66 mg/kg/injection, schedule: Q01DX009 (ip), vehicle: saline with Tween-80
  T/C: 109 % of control
dose: 3.12 mg/kg/injection, schedule: Q01DX009 (ip), vehicle: Klucel (hydroxypropylcellulose) (HPC)
  T/C: 111 % of control
dose: 6.0 mg/kg/injection, schedule: Q01DX009 (ip), vehicle: saline with Tween-80
  T/C: 122 % of control
dose: 6.25 mg/kg/injection, schedule: Q01DX009 (ip), vehicle: Klucel (hydroxypropylcellulose) (HPC)
  T/C: 122 % of control
dose: 6.25 mg/kg/injection, schedule: Q04DX003 (ip), vehicle: saline with Tween-80
  T/C: 109 % of control
dose: 6.3 mg/kg/injection, schedule: Q01DX009 (ip), vehicle: Klucel (hydroxypropylcellulose) (HPC)
  T/C: 105 % of control
dose: 12.5 mg/kg/injection, schedule: Q01DX009 (ip), vehicle: Klucel (hydroxypropylcellulose) (HPC)
  T/C: 105 % of control
dose: 12.5 mg/kg/injection, schedule: Q04DX003 (ip), vehicle: saline with Tween-80
  T/C: 109 % of control
[6]
  T/C: 122 % of control
[16]
  T/C: 113 % of control

## OCC1(O)CC(O)C(O)(CO)CC1O (stereo unspecified)
[11]
  T/C: 104 % of control
dose: 50.0 mg/kg/injection, schedule: Q04DX003 (ip), vehicle: saline
  T/C: 104 % of control
[12]
  T/C: 95 % of control
[14]
  T/C: 116 % of control
[13]
  T/C: 118 % of control
[15]
  T/C: 95 % of control

## CN(c1ccccc1)P(=O)(N1CC1)N1CC1
[16]
  T/C: 172 % of control
dose: 37.5 mg/kg/injection, schedule: Q04DX003 (ip), vehicle: saline with Tween-80
  T/C: 250 % of control

## Cc1cc([N+](=O)[O-])c2ccccc2c1N(CC(=O)O)S(=O)(=O)c1ccccc1
[8]
  T/C: 100 % of control
[2]
  T/C: 100 % of control
dose: 200.0 mg/kg/injection, schedule: Q01DX009 (ip), vehicle: saline with Tween-80
  T/C: 112 % of control
[4]
  T/C: 100 % of control
dose: 400.0 mg/kg/injection, schedule: Q01DX009 (ip), vehicle: saline with Tween-80
  T/C: 120 % of control
[5]
  T/C: 121 % of control

## CC(=O)OC1CC2CCC1(C)C2(C)C (stereo unspecified)
dose: 50.0 mg/kg/injection, schedule: Q04DX003 (ip), vehicle: saline with Tween-80
  T/C: 109 % of control
[2]
  T/C: 109 % of control
[4]
  T/C: 118 % of control

## Cc1ccc(Cl)cc1O
[7]
  T/C: 100 % of control
[8]
  T/C: 96 % of control
dose: 200.0 mg/kg/injection, schedule: Q04DX003 (ip), vehicle: saline + alcohol
  T/C: 104 % of control
dose: 300.0 mg/kg/injection, schedule: Q04DX003 (ip), vehicle: saline + alcohol
  T/C: 104 % of control
dose: 450.0 mg/kg/injection, schedule: Q04DX003 (ip), vehicle: saline + alcohol
  T/C: 91 % of control

## CS(=O)(=O)Nc1ccc(Nc2c3ccccc3nc3cc(Cl)ccc23)cc1
dose: 9.6 mg/kg/injection, schedule: Q04DX003 (ip), vehicle: Klucel (hydroxypropylcellulose) (HPC)
  T/C: 100 % of control
dose: 14.0 mg/kg/injection, schedule: Q04DX003 (ip), vehicle: Klucel (hydroxypropylcellulose) (HPC)
  T/C: 104 % of control
dose: 132.0 mg/kg/injection, schedule: Q04DX003 (ip), vehicle: saline
  T/C: 260 % of control and 195 % of control
[15]
  T/C: 272 % of control and 205 % of control
dose: 300.0 mg/kg/injection, schedule: Q04DX003 (ip), vehicle: saline
  T/C: 259 % of control
